Experimental findings from ChEMBL document CHEMBL1139533, “Structure-activity relationship studies of a series of antiviral and antibacterial aglycon derivatives of the glycopeptide antibiotics vancomycin, eremomycin, and dechloroeremomycin” (J Med Chem, 2005) are described below.

The test system of assay [1] is Enterococcus faecalis. The experiment in a line: Minimum inhibitory concentration against 559 glycopeptide susceptible enterococci Enterococcus faecalis. Format: functional.
The subject of assay [2] is Staphylococcus haemolyticus. Description: Minimum inhibitory concentration against 602 Staphylococcus haemolyticus. Format: functional.
The subject of assay [3] is Moloney murine sarcoma virus. Description: Effective concentration against Moloney sarcoma virus. It counts as functional, organism-based, Viruses.
The test system of assay [4] is Human immunodeficiency virus 1. Description: Effective concentration against human immunodeficiency virus type 1. Format: functional, organism-based.
Assay [5] relates to Enterococcus faecium. Description: Minimum inhibitory concentration against glycopeptide susceptible enterococci 568 Enterococcus faecium. Format: functional.
In assay [6] the test system is Human immunodeficiency virus 2. Description: Effective concentration against human immunodeficiency virus type 2. Format: functional, organism-based.
For assay [7], the system named is Staphylococcus aureus. Description: Minimum inhibitory concentration against glycopeptide intermediate-resistant 3797 Staphylococcus aureus. Format: functional.
The subject of assay [8] is MOLT-4. The experiment in a line: Cytostatic activity to the compound against Molt4/C8 cell line. It counts as functional, cell-based. Particulars: Homo sapiens.
The test system of assay [9] is Staphylococcus epidermidis. The experiment in a line: Minimum inhibitory concentration against 533 Staphylococcus epidermidis. Format: functional.
For assay [10], the system named is Enterococcus faecium. Description: Minimum inhibitory concentration against glycopeptide resistant enterococci 569 Enterococcus faecium. It counts as functional.
In assay [11] the test system is C3H/3T3. Description: Minimal cytotoxic concentration to cause an alteration in C3H/3T3 cell line morphology. It counts as functional. Particulars: Mus musculus.
Assay [12] deals with Staphylococcus aureus. The experiment in a line: Minimum inhibitory concentration against glycopeptide intermediate-resistant 3798 Staphylococcus aureus. Format: functional.
For assay [13], the system named is Enterococcus faecalis. Description: Minimum inhibitory concentration against glycopeptide resistant enterococci 560 Enterococcus faecalis. Format: functional.
In assay [14] the test system is CCRF-CEM. Description: Cytostatic activity to the compound against CEM cell line. It counts as functional, cell-based. The note with it: Homo sapiens.
The subject of assay [15] is L1210. The experiment in a line: Cytostatic activity against L1210 cell line. Particulars: Mus musculus. It counts as functional, cell-based.

One may read the MIC as the least concentration at which growth counts as inhibited. What is called EC50 is the concentration giving half of the maximal effect. Low values mean greater potency, high ones weaker potency. For orientation: IC50 means the concentration that gives 50% inhibition. A high value points to weaker potency.

Regarding `NC(=O)C[C@@H]1NC(=O)[C@H](N)[C@H](O)c2ccc(c(Cl)c2)Oc2cc3cc(c2O)Oc2ccc(cc2)[C@@H](O)[C@@H]2NC(=O)[C@H](NC(=O)[C@@H]3NC1=O)c1ccc(O)c(c1)-c1c(O)cc(O)cc1[C@@H](C(=O)NC1C3CC4CC(C3)CC1C4)NC2=O` (stereo not given in full), the minimal inhibitory concentration (MIC) in assay [1] was greater than 64 µg/mL; in assay [2] it was greater than 32 µg/mL; in assay [5] it was greater than 64 µg/mL; in assay [7] it was greater than 32 µg/mL; in assay [9] it was greater than 32 µg/mL; in assay [10] it was greater than 64 µg/mL. In addition, the minimum inhibitory concentration (MIC) in assay [12] is greater than 32 µg/mL; in assay [13], greater than 64 µg/mL. The figures for the EC50 in [3], in assay [4] and in [6] were 22 µM, 50 µM and 50 µM, respectively. Besides, the 50% inhibitory concentration (IC50) in assay [8], in [14] and in [15] was greater than 250 µM throughout. The compound also gave an MCC in [11] of no less than 100 µg/mL.
